Assay results from patent publication US9884832B2 (priority 2011, dated 2018).

Target: AM2 S31 (wild-type serine at position 31 in the M2 protein), influenza virus A/Udorn/72 (Influenza A virus, UniProt P0DOF5)
Assay: cell-based
Details: 100 uM; Xenopus oocytes; activity range class; read-out: S31 OOcyte Inhibition at 100 uM (%)

Chain of AM2 S31 (wild-type serine at position 31 in the M2 protein), influenza virus A/Udorn/72 (P0DOF5 whole entry, looked up): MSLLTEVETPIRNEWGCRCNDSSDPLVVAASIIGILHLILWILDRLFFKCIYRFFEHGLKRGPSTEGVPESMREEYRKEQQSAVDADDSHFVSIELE

Compound | inhibition at 100 µM [%]
C[Si](C)(C)c1ccc(CNC23CC4CC(CC(C4)C2)C3)cc1 [Example 6a, Adamantan-1-yl-(4-trimethylsilanyl-benzyl)-amine] | 0 to 30
Ic1ccc(CNC23CC4CC(CC(C4)C2)C3)s1 [Example 91a, N-((5-Iodothiophen-2-yl)methyl)adamantan-1-amine] | 31 to 95
CC(C)n1cc(CNC23CC4CC(CC(C4)C2)C3)cn1 [Example 85a, N-((1-isopropyl-1H-pyrazol-4-yl)methyl)adamantan-1-amine] | 0 to 30
c1csc(C2=NOC(CNC34CC5CC(CC(C5)C3)C4)C2)c1 (stereo not drawn) [Example 168a, N-((3-(thiophen-2-yl)-4,5-dihydroisoxazol-5-yl)methyl)adamantan-1-amine] | 0 to 30
CC(C)c1csc(CNC23CC4CC(CC(C4)C2)C3)n1 [Example 84a, N-((4-isopropylthiazol-2-yl)methyl)adamantan-1-amine] | 0 to 30
c1ccc(-c2nnc(CNC34CC5CC(CC(C5)C3)C4)o2)cc1 [Example 115a, N-((5-phenyl-1,3,4-oxadiazol-2-yl)methyl)adamantan-1-amine] | 0 to 30
Brc1cc(CNC23CC4CC(CC(C4)C2)C3)on1 [Example 94a, N-((3-bromoisoxazol-5-yl)methyl)adamantan-1-amine] | 0 to 30
c1cc(-c2ccc(CNC34CC5CC(CC(C5)C3)C4)cn2)cs1 [Example 59a, N-((6-(thiophen-3-yl)pyridin-3-yl)methyl)adamantan-1-amine] | 0 to 30
OC12CC3CC(C1)CC(NCc1ccc(-c4ccccc4)s1)(C3)C2 [Example 191a, 3-[(5-Phenyl-thiophen-2-ylmethyl)-amino]adamantan-1-ol] | 0 to 30
Clc1ccc(COc2ccc(CNC34CC5CC(CC(C5)C3)C4)cc2)cc1 [Example 16a, Adamantan-1-yl-[4-(4-chloro-benzyloxy)-benzyl]-amine] | 31 to 95
c1c(CNC23CC4CC(CC(C4)C2)C3)noc1CN1CCOCC1 [Example 106a, N-((5-(morpholinomethyl)isoxazol-3-yl)methyl)adamantan-1-amine] | 0 to 30
c1cc(-c2nc(CNC34CC5CC(CC(C5)C3)C4)no2)cs1 [Example 143a, N-((5-(thiophen-3-yl)-1,2,4-oxadiazol-3-yl)methyl)adamantan-1-amine] | 0 to 30
Cc1oc(-c2cccs2)nc1CNC12CC3CC(CC(C3)C1)C2 [Example 145a, N-((5-methyl-2-(thiophen-2-yl)oxazol-4-yl)methyl)adamantan-1-amine] | 0 to 30
c1csc(-c2ccc(CNC34CC5CC(CC(C5)C3)C4)cc2)c1 [Example 29a, N-(4-(Thiophen-2-yl)benzyl)adamantan-1-amine methanesulfonate] | 0 to 30
Oc1cc(-c2cc3ccccc3o2)ccc1CNC12CC3CC(CC(C3)C1)C2 [Example 48a] | 0 to 30
Cc1noc(C)c1-c1ccc(CNC23CC4CC(CC(C4)C2)C3)cc1 [Example 33a, N-(4-(3,5-Dimethylisoxazol-4-yl)benzyl)adamantan-1-amine] | 0 to 30

Compound | inhibition at 100 µM [%]
c1ccc(-c2cc(CNC34CC5CC(CC(C5)C3)C4)no2)cc1 [Example 116a, N-((5-phenylisoxazol-3-yl)methyl)adamantan-1-amine] | 0 to 30
Brc1ccc(-c2ccc(CNC34CC5CC(CC(C5)C3)C4)s2)s1 [Example 159a, N-((5′-bromo-[2,2′-bithiophen]-5-yl)methyl)adamantan-1-amine] | 0 to 30
Cc1ccsc1CNC12CC3CC(CC(C3)C1)C2 [Example 76a, N-((3-methylthiophen-2-yl)methyl)adamantan-1-amine] | 31 to 95
Cn1c(CNC23CC4CC(CC(C4)C2)C3)cc2sccc21 [Example 172a, Adamantan-1-yl-(4-methyl-4H-thieno[3,2-b]pyrrol-5-ylmethyl)-amine] | 0 to 30
Fc1ccc(-c2nc(CNC34CC5CC(CC(C5)C3)C4)no2)cc1 [Example 163a] | 0 to 30
Clc1cc2cc(CNC34CC5CC(CC(C5)C3)C4)sc2s1 [Example 173a, Adamantan-1-yl-(5-chloro-thieno[2,3-b]thiophen-2-ylmethyl)-amine] | 31 to 95
COc1ccc(-c2ccc(CNC34CC5CC(CC(C5)C3)C4)s2)cc1 [Example 113a, N-((5-(4-methoxyphenyl)thiophen-2-yl)methyl)adamantan-1-amine] | 0 to 30
c1csc(CNC23CC4CC(CC(C4)C2)C3)n1 [Example 71a, Adamantan-1-yl-thiazol-2-ylmethyl-amine] | 31 to 95
CSc1ccc(-c2ccc(CNC34CC5CC(CC(C5)C3)C4)s2)cc1 [Example 112a, N-((5-(4-(methylthio)phenyl)thiophen-2-yl)methyl)adamantan-1-amine] | 0 to 30
Brc1ncc(CNC23CC4CC(CC(C4)C2)C3)s1 [Example 104a, N-((2-bromothiazol-5-yl)methyl)adamantan-1-amine] | 0 to 30
Brc1ccc(CNC23CC4CC(CC(C4)C2)C3)o1 [Example 87a, Adamantan-1-yl-(5-bromo-furan-2-ylmethyl)-amine] | 31 to 95
c1ccc(-c2cc(CNC34CC5CC(CC(C5)C3)C4)on2)cc1 [Example 164a] | 0 to 30
COc1ccc(-c2nnc(CNC34CC5CC(CC(C5)C3)C4)o2)cc1 [Example 127a, N-((5-(4-methoxyphenyl)-1,3,4-oxadiazol-2-yl)methyl)adamantan-1-amine] | 0 to 30
c1ccc2nc(CNC34CC5CC(CC(C5)C3)C4)ccc2c1 [Example 56a, Adamantan-1-yl-quinolin-2-ylmethyl-amine] | 31 to 95
Brc1ncc(CNC23CC4CC(CC(C4)C2)C3)cn1 [Example 57a, N-((2-bromopyrimidin-5-yl)methyl)adamantan-1-amine] | 0 to 30

Same assay, conditions: 100 uM; Xenopus oocytes; numeric value; read-out: S31 OOcyte Inhibition at 100 uM (%)

Compound | inhibition at 100 µM [%]
c1cn(-c2ccc(CNC34CC5CC(CC(C5)C3)C4)cc2)cn1 [Example 36a, N-(4-(1H-imidazol-1-yl)benzyl)adamantan-1-amine] | 16.1

Same assay, conditions: Table 1; 100 uM; Xenopus oocytes, pH 5.5, -20 mV; read-out: S31 OOcyte Inhibition at 100 uM (%)

Compound | inhibition at 100 µM [%]
Cc1nn2cc(CNC3C4CC5CC(C4)CC3C5)nc2s1 (stereo not drawn) [Example 106, Adamantan-2-yl-(2-methyl-imidazo[2,1-b][1,3,4]thiadiazol-6-ylmethyl)-amine] | 0 to 30
c1cn2cc(CNC3C4CC5CC(C4)CC3C5)nc2s1 (stereo not drawn) [Example 107, Adamantan-2-yl-imidazo[2,1-b]thiazol-6-ylmethyl-amine] | 31 to 95
c1ccc2oc(CNC34CC5CC(CC(C5)C3)C4)cc2c1 [Example 89, Adamantan-1-yl-benzofuran-2-ylmethyl-amine] | 0 to 30
Oc1cc(O)c(CNC23CC4CC(CC(C4)C2)C3)c(O)c1 [Example 70, 2-(Adamantan-1-ylaminomethyl)-benzene-1,3,5-triol] | 0 to 30
Oc1ccc(CNC23CC4CC(CC(C4)C2)C3)cc1Cl [Example 47, 4-(Adamantan-1-ylaminomethyl)-2-chloro-phenol] | 31 to 95
Fc1ccc(C(F)(F)F)cc1CNC12CC3CC(CC(C3)C1)C2 [Example 62, Adamantan-1-yl-(2-fluoro-5-trifluoromethyl-benzyl)-amine] | 0 to 30
Oc1ccc(CNC2C3CC4CC(C3)CC2C4)cc1 (stereo not drawn) [Example 99, 4-(Adamantan-2-ylaminomethyl)-phenol] | 31 to 95
Oc1ccc(CNC23CC4CC(CC(C4)C2)C3)c(Cl)c1 [Example 58, 4-(Adamantan-1-ylaminomethyl)-3-chloro-phenol] | 31 to 95
COc1cc(O)cc(OC)c1CNC12CC3CC(CC(C3)C1)C2 [Example 66, 4-(Adamantan-1-ylaminomethyl)-3,5-dimethoxy-phenol] | 31 to 95
OCc1ccc(CNC23CC4CC(CC(C4)C2)C3)o1 [Example 77, [5-(Adamantan-1-ylaminomethyl)-furan-2-yl]methanol] | 0 to 30

Same assay, conditions: Table 3; 100 uM; Xenopus oocytes, pH 5.5, -20 mV; read-out: S31 OOcyte Inhibition at 100 uM (%)

Compound | inhibition at 100 µM [%]
Fc1cc(F)cc(-c2cc(CNC34CC5CC(CC(C5)C3)C4)no2)c1 [Example 33b, N-((5-(3,5-difluorophenyl)isoxazol-3-yl)methyl)adamantan-1-amine] | 0 to 30
CC(C)c1cc(CNC23CC4CC(CC(C4)C2)C3)no1 [Example 27b, N-((5-isopropylisoxazol-3-yl)methyl)adamantan-1-amine] | 0 to 30
Cc1ncc(CNC23CC4CC(CC(C4)C2)C3)s1 [Example 16b, N-((2-methylthiazol-5-yl)methyl)adamantan-1-amine] | 0 to 30
CCOc1ccc(-c2ccc(CNC34CC5CC(CC(C5)C3)C4)s2)cc1 [Example 49b, N-((5-(4-Ethoxyphenyl)thiophen-2-yl)methyl)adamantan-1-amine] | 0 to 30
CC(C)(C)c1ccc(-c2ccc(CNC34CC5CC(CC(C5)C3)C4)s2)cc1 [Example 50b, N-((5-(4-(tert-Butyl)phenyl)thiophen-2-yl)methyl)adamantan-1-amine] | 0 to 30
Clc1ccccc1-c1nc(CNC23CC4CC(CC(C4)C2)C3)no1 [Example 31b, N-((5-(2-chlorophenyl)-1,2,4-oxadiazol-3-yl)methyl)adamantan-1-amine] | 0 to 30
Oc1cc(I)ccc1CNC12CC3CC(CC(C3)C1)C2 [Example 2b] | 31 to 95
CSC(C)(C)Cc1cc(CNC23CC4CC(CC(C4)C2)C3)no1 [Example 46b, N-((5-(2-methyl-2-(methylthio)propyl)isoxazol-3-yl)methyl)adamantan-1-amine] | 0 to 30
Cc1noc(C)c1-c1nc(CNC23CC4CC(CC(C4)C2)C3)no1 [Example 25b, N-((5-(3,5-dimethylisoxazol-4-yl)-1,2,4-oxadiazol-3-yl)methyl)adamantan-1-amine] | 0 to 30
